Data as given in the supplement of paper PMC10307832.

Assays:
Assay in all cases: relative viability (nuclei count vs DMSO), 5 days (fraction); higher = more cells survive
[1] = compound: COc1cc2c(Oc3ccc4[nH]c(C)cc4c3F)ncnc2cc1OCCCN1CCCC1 [Cediranib] + CC(C)C[C@H](NC(=O)[C@H](Cc1ccccc1)NC(=O)c1cnccn1)B(O)O [Bortezomib] (partner 0.002 µM)
Procedure, shortened: (§1)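 Five library-drug doses in √10 steps were combined with a fixed anchor-drug dose, or a single drug was given alone, by pin tool to lung cancer cell lines in 1536-well plates the day after seeding. Nuclei were stained and counted after 5 days. Relative viability is the nuclei count in treated wells over that in vehicle wells, taken as the median of duplicate plates.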

[2] = compound: O=C(C[C@H]1NCCC[C@@H]1O)Cn1cnc2cc(Br)c(Cl)cc2c1=O (racemic) [Halofuginone] + CC(C)C[C@H](NC(=O)[C@H](Cc1ccccc1)NC(=O)c1cnccn1)B(O)O [Bortezomib] (partner 0.002 µM)
Procedure, shortened: as §1

[3] = compound: COc1cc2c(Oc3ccc4[nH]c(C)cc4c3F)ncnc2cc1OCCCN1CCCC1 [Cediranib] + CS(=O)(=O)N1CCN(Cc2cc3nc(-c4cccc5[nH]ncc45)nc(N4CCOCC4)c3s2)CC1 [Pictilisib] (partner 1 µM)
Procedure, shortened: as §1

[4] = compound: COc1cc2c(Oc3ccc4[nH]c(C)cc4c3F)ncnc2cc1OCCCN1CCCC1 [Cediranib] + Nc1nc2[nH]cc(CCc3ccc(C(=O)N[C@@H](CCC(=O)O)C(=O)O)cc3)c2c(=O)[nH]1 [Pemetrexed] (partner 0.2 µM)
Procedure, shortened: as §1

Row | Cell Line | relative viability ([1]; first compound 0.04 µM) | relative viability ([1]; first compound 0.1265 µM) | relative viability ([1]; first compound 0.4 µM) | relative viability ([1]; first compound 1.265 µM) | relative viability ([1]; first compound 4 µM) | relative viability ([2]; first compound 0.001 µM) | relative viability ([2]; first compound 0.003162 µM) | relative viability ([2]; first compound 0.01 µM) | relative viability ([2]; first compound 0.03162 µM) | relative viability ([2]; first compound 0.1 µM) | relative viability ([3]; first compound 0.04 µM) | relative viability ([3]; first compound 0.1265 µM) | relative viability ([3]; first compound 0.4 µM) | relative viability ([3]; first compound 1.265 µM) | relative viability ([3]; first compound 4 µM) | relative viability ([4]; first compound 0.04 µM) | relative viability ([4]; first compound 0.1265 µM) | relative viability ([4]; first compound 0.4 µM) | relative viability ([4]; first compound 1.265 µM) | relative viability ([4]; first compound 4 µM)
1 | NCI-H2087 | 0.849 | 0.739 | 0.775 | 0.722 | 0.697 | 0.758 | 0.839 | 0.86 | 0.676 | 0.917 | 0.921 | 0.763 | 0.825 | 0.752 | 0.935 | 0.734 | 0.678 | 0.633 | 0.587 | 0.63
2 | NCI-H2126 | 1.14 | 1.2 | 1.09 | 0.963 | 1.11 | 1.16 | 1.08 | 1.07 | 1.07 | 1.11 | 0.442 | 0.432 | 0.458 | 0.452 | 0.435 | 0.701 | 0.595 | 0.627 | 0.725 | 0.748
3 | NCI-H2228 | 1.16 | 1.09 | 0.991 | 1.35 | 1.14 | 1.06 | 0.856 | 0.988 | 0.426 | 0.151 | 0.522 | 0.504 | 0.459 | 0.288 | 0.557 | 0.351 | 0.346 | 0.359 | 0.325 | 0.325
4 | NCI-H2347 | 1.09 | 0.819 | 0.93 | 1.02 | 0.96 | 1.24 | 1.09 | 0.758 | 1.03 | 0.852 | 0.592 | – | 0.742 | 0.516 | 0.444 | 0.397 | 0.353 | 0.425 | 0.454 | 0.44
5 | NCI-H2405 | 1.05 | 0.475 | 0.982 | 0.894 | 0.983 | 1.07 | 0.948 | 0.968 | 0.943 | 0.904 | 0.457 | 0.708 | 0.416 | 0.305 | 0.415 | 1.02 | 1.01 | 0.997 | 1.1 | 1.16
6 | NCI-H3122 | 0.996 | 0.967 | 1.01 | 1.06 | 1 | 1.05 | 1.06 | 1 | 0.954 | 1.04 | 0.669 | 0.674 | 0.585 | 0.55 | 0.588 | 0.227 | 0.238 | 0.191 | 0.203 | 0.216
7 | PC-3 [JPC-3] | 0.844 | 0.829 | 0.844 | 0.924 | 0.809 | 0.852 | 0.875 | 0.736 | 0.799 | 0.873 | 0.659 | 0.905 | 0.708 | 0.671 | 0.768 | 1.03 | – | 1.08 | 1.17 | 0.96
8 | PC-14 | 0.889 | 0.831 | 0.734 | 0.878 | 0.902 | 0.865 | 0.819 | 0.697 | 0.13 | 0.0654 | 0.826 | 0.918 | 0.487 | 0.438 | 0.652 | 0.0843 | 0.143 | 0.13 | 0.131 | 0.146
9 | RERF-LC-KJ | 1.09 | – | 1.04 | 1.11 | 1.17 | 1.23 | 1.12 | 1.15 | 1.17 | 1.04 | 0.526 | 0.573 | 0.516 | 0.461 | 0.431 | 0.488 | 0.346 | 0.444 | 0.514 | 0.479
10 | SK-LU-1 | 1.22 | 1.24 | 1.13 | 0.956 | 1.17 | 1.28 | 0.931 | 0.955 | 1.31 | 0.821 | 0.632 | 0.796 | 0.54 | 0.497 | 0.498 | 1.11 | 1.01 | 0.969 | 0.956 | 1.18
11 | SW 1573 | 1.1 | 1.04 | 0.899 | 1.05 | 1.09 | 1.03 | 1.02 | 1.15 | 0.653 | 0.227 | 0.544 | 0.486 | 0.428 | 0.474 | 0.486 | 0.981 | 0.954 | 0.844 | 0.826 | 0.908
